Paper PMC5225203, “Multiparameter toxicity assessment of novel DOPO-derived organophosphorus flame retardants” (Archives of Toxicology, 2016)
Where two headings read alike, the source gives them in different places.

Legend:
[1] = test system: human alveolar epithelial cell line A549; test: Acute cytotoxicity, MTS reduction, A549; type: cell-based; details: A549, 48 h; for concentration producing acute toxicity: MTS; for cell damage (viability, MTS reduction): concentrations as high as 400 µM
Experimental: The human alveolar epithelial cell line A549 (ATCC: CCL-185) was grown in Roswell Park Memorial Institute (RPMI-1640) medium (Sigma-Aldrich) supplemented with 10 % FCS (Lonza), 2 mM L-glutamine (Gibco), 50 µg/mL penicillin (Gibco), 50 µg/mL streptomycin (Gibco), and 100 µg/mL neomycin (Gibco) at 37 °C in a humidified atmosphere containing 5 % CO2 (hereafter referred to as complete cell culture medium and standard growth conditions, respectively). Cells were subcultured at approximately 80–90 % confluency using 0.5 % trypsin–EDTA (Sigma-Aldrich). For viability assessment, 1.5 × 10^4 cells per well were seeded in 200 µL complete cell culture medium in a 96-well plate and grown overnight under standard growth conditions, after which the cells were treated for 48 h with 200 µL standard growth medium per well containing increasing concentrations of the flame retardants or positive control agent CdSO4. CellTiter96® AQueous One Solution (Promega) containing MTS (3-(4,5-dimethylthiazol-2-yl)-5-(3-carboxymethoxy-phenyl)-2-(4-sulfophenyl)-2H) as a water-soluble tetrazolium compound was used according to the manufacturer’s protocol. Absorption was detected at 490 nm.

Daphnia magna = test: Acute daphnia immobilization test (OECD guideline 202); type: in vivo; details: for Immobile Daphnia after 48 h: 20 individuals; for daphnia viability: at concentrations ≤400 µM (abstract)
Experimental: Loading Num ber of I m m obile rate Replicat e individuals Da phnia
(mg/l) per test af t er 48 h
Suppl. Fig. 5. Freshwater microcrustacean toxicity test. Acute toxicity was determined in Daphnia magna according to the standardized OECD guidelines number 202 test, performed by BMG Engineering Ltd., Schlieren, Switzerland. Daphnia were cultured in aerated Elendt M4 medium at a constant temperature of 21°C under a 16:8 light/dark photoperiod. The water soluble fraction of the indicated concentrations of flame retardants were added for 48 h.
Mortality was assessed by the detection of movement analysis. Immobile Daphnia were defined as those animals displaying no movement within a 15 s period following shaking of […]

Desmodesmus subspicatus = type: cell-based
Experimental: Suppl. Fig. 6. Freshwater microalgae toxicity test. Acute toxicity was tested by assessing algal growth inhibition applying Desmodesmus subspicatus according to OECD guideline number 201. Growth inhibition tests were performed using an initial cell density of 5 x 10^3 cells/ml (= OD680 of 0.005). The cells were maintained in 250 mL flasks containing 100 mL of sterile OECD algal medium at 22°C at 130 rpm illuminated with 3000 lux. Cell density was detected photospectrometrically at λ680 nm in 24 h intervals in algae cultures treated with the respective flame retardants. Experiments were performed by BMG Engineering Ltd., […]
(§1) (1 picture or pasted object on this page, not shown here)

[2] = test system: differentiated LUHMES cells; type: cell-based, human; details: at high concentrations, correlated with neurite degeneration
Experimental: Suppl. Fig. 10. Migration of mitochondria in neurites. Mitochondrial migration was detected in fully differentiated (day 6 of differentiation, DoD6) mixed LUHMES cultures consisting of 3% eGFP/mito-tRFP-overexpressing LUHMES in 97% unlabeled LUHMES in order to allow tracking of mitochondria in single neurites in an environment of normal LUHMES cell density (Schildknecht et al. 2013, ALTEX 30(4):427-444). Single cell time lapse imaging was performed for a period of 90 s in intervals of 3 s with a Zeiss LSM 780 inverted fluorescence microscope YOKOGAWA CSU-XI spinning disk system using an EVOLVE camera (Carl Zeiss Group, Oberkochen, Germany) equipped with a 5% CO2 /37°C controlled chamber and a 40 x 1.3 NA oil objective. For image analysis, kymographs (graphical representation of spatial position over time) based on the data obtained from single cell time lapse experiments were created using ImageJ Software (NIH, Bethesda, USA). The neurite was manually defined by the segmented line tool. To calculate mitochondrial velocity, diagonal lines were drawn for each moving mitochondrium in the kymograph and analysed by calculating the slope with the macro-plugin Kymo Line ROI, generated by Felix Schöneberger, Bioimaging Center (BIC), University of Konstanz, Germany.
as §1

human neural crest cells = test: Neural crest cell (NCC) migration assay; type: cell-based; details: for cell migration / cell viability / concentration range in which migration was far more affected than cell viability: NCC, 24 h
Experimental: Human embryogenic stem cells (H9 hESC line; Wisconsin International Stem Cell Bank, Madison, WI, USA) were plated on a confluent layer of mitomycin C-treated murine bone marrow-derived stromal MS5 cells and differentiated as previously described (Lee et al. [2010]; Zimmer et al. [2012]). After 21 days, rosettes were picked and plated onto poly-L-ornithine/laminin/fibronectin-coated plates in N2 medium. After 7 days, cells were FACS-sorted for positive expression of the neural crest marker human natural killer-1 (HNK-1) and expanded in N2 medium supplemented with epidermal growth factor (EGF, 20 ng/mL) and fibroblast growth factor (FGF2, 20 ng/mL). For expansion, the cells were passaged every 6 days using accutase (PAA, Pasching, Austria) to detach the cells. After 30 days of expansion, the cells were cryopreserved in 90 % fetal bovine serum, 10 % DMSO. For the analysis of neural crest cell migration, silicone stoppers (Platypus Technologies, Madison, WI, USA) were inserted in a 96-well plate coated with poly-L-ornithine/laminin/fibronectin. Freshly thawed NCCs were seeded at a density of 100,000 cells/cm^2 in N2 medium containing EGF and FGF2 and allowed to attach for 1 day. Stoppers were removed, and the cells were allowed to migrate into the center of the well. Compounds tested in this study were diluted from a 10 mM stock in DMSO and were applied for 24 h. For single cell detection, cells were stained with H-33342 (1 µg/mL) and calcein-AM (0.5 µM) and imaged using a high content imaging microscope (Cellomics ArrayScanVTI, Thermo Fischer). Viability was assessed by counting the number of H-33342 and calcein double-positive cells outside the migration zone. Migration was detected by acquisition of the number of H-33342 and calcein double-positive cells in the migration area.

[3] = test system: neuronal and non-neuronal cell models; test: Synopsis of all in vitro assays applied in this work; type: cell-based, human; details: for IC50: Homo sapiens, read-out: average IC50 values; for concentration with cell type-independent cytotoxic properties: all cellular in vitro models; for cytotoxic effects: at concentrations higher than 100 µM
Experimental: IC50 values are defined by the concentration of the flame retardant investigated where the response was reduced by half. Log-transformed flame retardant concentration values and the respective response data were fitted to a four-parameter logistic equation: y=A+B-A/1+(x/C)^D The percent inhibition response data are represented by y; B = maximum of y; A = minimum of y; x = flame retardant concentration; C = IC50; D = Hill slope factor. The IC50 values were calculated from these sigmoidal dose–response curves utilizing Prism 5.0 (GraphPad, San Diego, CA, USA) software.

[4] = loading rate 10 mg/l, replicate A
[5] = loading rate 10 mg/l, replicate B
[6] = loading rate 100 mg/l, replicate A
[7] = loading rate 100 mg/l, replicate B
[8] = loading rate 1000 mg/l, replicate A
[9] = loading rate 1000 mg/l, replicate B
[10] = highest tested concentrations, water-soluble fraction of 1000 mg/L (approximately 2 mM)
[11] = concentrations as high as 100 µM
[12] = at concentrations ≤400 µM (abstract)

Row | Structure (SMILES) | concentration producing acute toxicity [1] | Immobile Daphnia after 48 h (Daphnia magna; [4]) | Immobile Daphnia after 48 h (Daphnia magna; [5]) | Immobile Daphnia after 48 h (Daphnia magna; [6]) | Immobile Daphnia after 48 h (Daphnia magna; [7]) | Immobile Daphnia after 48 h (Daphnia magna; [8]) | Immobile Daphnia after 48 h (Daphnia magna; [9]) | algae growth (Desmodesmus subspicatus; [10]) | mitochondrial velocity [2] | cell migration (human neural crest cells) | cell viability (human neural crest cells) | concentration range in which migration was far more affected than cell viability (human neural crest cells) | IC50 [3] | concentration with cell type-independent cytotoxic properties [3] | cell damage (viability, MTS reduction) [1] | daphnia viability (Daphnia magna) | algae growth (Desmodesmus subspicatus; [12]) | NCC migration and NCC viability (human neural crest cells; [11]) | cytotoxic effects [3] | further results
1 | O=P1(OCCOP2(=O)Oc3ccccc3-c3ccccc32)Oc2ccccc2-c2ccccc21 (stereo not drawn) [EG-DOPO, 6,6′-(ethane-1,2-diylbis(oxy))bis(6H-dibenzo[c,e][1,2]oxaphosphinine-6-oxide)] | > 20 µM | 0% | 0% | 10% | 0% | 5% | 10% | inhibited algae growth | influenced mitochondrial velocity | concentration-dependent declines | concentration-dependent declines | 30 to 60 µM | 20 to 100 µM | > 10 µM | – | – | – | – | – | –
2 | Brc1ccc(Oc2cc(Br)c(Br)cc2Br)c(Br)c1 [PBDE-99, reference compound] | – | – | – | – | – | – | – | – | influenced mitochondrial velocity | moderately, but significantly, inhibited | did not reduce cell viability | – | – | – | no signs of cell damage | – | – | – | – | viability of human NCCs (human neural crest cells; [11]): did not reduce the viability; concentration with distinct neuro-selective cytotoxicity ([3]; abstract): ≥ 10 µM; concentration detrimentally influencing central and peripheral neurons ([3]; central and peripheral neurons): > 10 µM; toxicity in non-neuronal models ([3]; macrophages, lung epithelial cells, keratinocytes, concentrations as high as 400 µM): no significant toxicity
3 | O=P1(NCCNP2(=O)Oc3ccccc3-c3ccccc32)Oc2ccccc2-c2ccccc21 (stereo not drawn) [EDA-DOPO, 6,6′-(ethane-1,2-diylbis(azanediyl))bis(6H-dibenzo[c,e][1,2]oxaphosphinine-6-oxide)] | – | 0% | 0% | 0% | 0% | 5% | 10% | no effect | – | inhibited neither cell migration | – | – | – | – | no signs of cell damage | nor did they affect algae growth or daphnia viability | nor did they affect algae growth or daphnia viability | influenced neither NCC migration nor NCC viability | no comparable effects | harmful effects ([3]; all assays utilized): no harmful effects
4 | O=P1(NCCOP2(=O)Oc3ccccc3-c3ccccc32)Oc2ccccc2-c2ccccc21 (stereo not drawn) [ETA-DOPO, 6-(2-((6-oxido-6H-dibenzo[c,e][1,2]oxaphosphinin-6-yl)amino)ethoxy)-6H-dibenzo[c,e][1,2]oxaphosphinine 6-oxide] | > 20 µM | 5% | 0% | 0% | 0% | 5% | 0% | no effect | influenced mitochondrial velocity | concentration-dependent declines | concentration-dependent declines | 30 to 60 µM | 20 to 100 µM | > 10 µM | – | – | – | – | – | –
5 | O=[PH]1Oc2ccccc2-c2ccccc21 (stereo not drawn) [DOPO, 9,10-dihydro-9-oxa-10-phosphaphenanthrene-10-oxide] | – | – | – | – | – | – | – | – | – | inhibited neither cell migration | – | – | – | – | no signs of cell damage | nor did they affect algae growth or daphnia viability | nor did they affect algae growth or daphnia viability | influenced neither NCC migration nor NCC viability | no comparable effects | influence on all parameters investigated ([3]; concentrations up to 400 µM): no influence
